ChEMBL document CHEMBL1134601, “Coumarins derivatives as dual inhibitors of acetylcholinesterase and monoamine oxidase” (J Med Chem, 2001)

What was measured:
[1] = target: Acetylcholinesterase (Electrophorus electricus) (UniProt O42275)
Description: Non-competitive inhibitory activity against acetylcholinesterase (AChE)

[2] = target: Acetylcholinesterase (Electrophorus electricus) (UniProt O42275); remark: listed apart in the source
Description: Competitive inhibitory activity against acetylcholinesterase (AChE)

Chain of Acetylcholinesterase (Electrophorus electricus) (O42275 24-633 limits assumed): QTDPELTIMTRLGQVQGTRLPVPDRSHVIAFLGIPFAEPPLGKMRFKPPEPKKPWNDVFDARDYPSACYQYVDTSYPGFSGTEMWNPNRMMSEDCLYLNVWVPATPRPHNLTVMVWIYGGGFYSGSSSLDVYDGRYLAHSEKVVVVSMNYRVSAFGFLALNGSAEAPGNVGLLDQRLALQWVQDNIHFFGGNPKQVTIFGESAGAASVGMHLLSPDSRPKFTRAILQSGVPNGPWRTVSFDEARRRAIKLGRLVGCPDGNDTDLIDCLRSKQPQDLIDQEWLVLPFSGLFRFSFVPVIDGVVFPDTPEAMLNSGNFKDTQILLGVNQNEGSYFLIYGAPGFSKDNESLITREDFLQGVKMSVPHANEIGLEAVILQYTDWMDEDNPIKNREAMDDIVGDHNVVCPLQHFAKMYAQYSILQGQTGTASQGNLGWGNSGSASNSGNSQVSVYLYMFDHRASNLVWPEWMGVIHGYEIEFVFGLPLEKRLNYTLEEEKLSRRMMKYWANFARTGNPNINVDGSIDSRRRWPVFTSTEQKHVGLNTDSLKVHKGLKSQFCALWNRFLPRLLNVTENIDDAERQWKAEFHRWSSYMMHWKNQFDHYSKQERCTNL

Compound: Cc1ccccc1COc1ccc2c(C)c(C)c(=O)oc2c1
- pKinc [1]: 4.68

Compound: Cc1c(C)c2ccc(O)cc2oc1=O
- pKic [2]: 4.54
- pKinc [1]: 4

Compound: Cc1c(C)c2ccc(OCc3cc(F)cc(F)c3)cc2oc1=O
- pKinc [1]: 4.73

Compound: O=c1ccoc2ccc(OCc3ccccc3)cc12
- pKinc [1]: 4.29

Compound: Cc1c(C)c2ccc(OCc3cccc(N)c3)cc2oc1=O
- pKinc [1]: 4.74

Compound: Cc1c(C)c2ccc(OCc3cccc(O)c3)cc2oc1=O
- pKinc [1]: 4.83

Compound: Cc1c(C)c2ccc(OCCc3ccccc3)cc2oc1=O
- pKinc [1]: 4.8

Compound: Cc1c(C)c2ccc(OCc3ccccc3)cc2oc1=O
- pKinc [1]: 5.39

Compound: COc1ccc2c(C)c(C)c(=O)oc2c1
- pKic [2]: 4.8
- pKinc [1]: 4.56

Compound: Cc1c(C)c2ccc(OCc3ccc(F)c(F)c3)cc2oc1=O
- pKinc [1]: 5.06

Compound: Cc1cc(=O)c2cc(OCc3ccccc3)ccc2o1
- pKic [2]: 4.78
- pKinc [1]: 4.53
